In US20240424010A1, “NICOTINAMIDE RIBOSIDE TRIOLEATES CHLORIDE, COMPOSITIONS CONTAINING THIS COMPOUND, AND METHODS OF MAKING AND USING THIS COMPOUND” (SOCIETE DES PRODUITS NESTLE S.A., priority 2021, published 2024):

Experiments:
Format in all cases: physicochemical
[1] = Stability of NRTOCl and NRCl in DI water at 35° C. for 28 days (released nicotinamide by HPLC)
Description: Although NRTOCl is a quaternary ammonium salt, it was not dissolved in water due to the existence of three groups of oleate fatty ester in its structure. Therefore, for the stability study of NRTOCl, this compound was dispersed in DI water using 1% ethanol as a cosolvent. For this purpose, 15 mg of NRTOCl was dissolved in 0.15 ml of ethanol (1%) and then 14.85 ml of DI water was added to the mixture and gently shaken. […] Although the average size of NRTOCl in this sample was 192 nm, the images of TEM disclosed smaller particles with around 50 nm and oval and spherical shapes with aspect ratio close to unity (FIGS. 10A-10C). In the nanoparticles, the NRTOCl structures are stacked on top of each other layer-by-layer. The highly positive charge of NRTO makes the nanoparticles stable in the aqueous phase. After dispersion of NRTOCl in DI water, NRCl was dissolved in DI water, and the stability of these samples were studied at 35° C. for 28 days (FIG. 11). The concentration of each sample was 1000 ppm. As during the hydrolysis reaction of NRTO and NR, both of these compounds released nicotinamide (FIG. 12), and by measuring the released amount of nicotinamide in each sample with HPLC, the remaining amounts of NRTO and NR in each sample were calculated. During this study, any release of NR from NRTO sample was not detected. It signifies that the heavy ester groups in NRTO sample are not hydrolyzed during the time of stability study. Because this study was performed in DI water and the conditions were mild, the NRTO was hydrolyzed from its N-glycoside bond.

[2] = Hydrolysis stability of NRTOCl and NRCl oil-in-water emulsions and NRCl in water at 35° C. for 26 days; settings: 35° C., 26 days; for times more stable than NR(Cl) in emulsion: canola oil-in-water emulsion with sodium caseinate
Description: The emulsion was prepared using 480 mg of oil stock containing 15 wt. % NRTOCl in canola oil and an aqueous phase (14.52 g) of Na-caseinate (2 wt. %), KCl (0.3 wt. %), NaCl (0.1 wt. %), CaCl2 (0.2 wt. %) and NaN3 (0.01 wt. %).
The emulsion was-prepared using 480 mg of oil stock containing 15 wt. % NRTOCl in canola oil and 0.025 g of lecithin. The aqueous phase (14.5 g) contained Na-caseinate (2 wt. %), KC (0.3 wt. %), NaCl (0.1 wt. %), CaCl2 (0.2 wt. %) and NaN3 (0.01 wt. %).
The emulsion was-prepared using 480 mg of oil stock containing 15 wt. % NRTOCl in canola oil and an aqueous phase (14.52 g) of polysorbate 80 (Tween 80) (2 wt. %).
The emulsion was prepared using around 480 mg of canola oil in an aqueous phase (14.52 g) of NRCl (19 mg), Na-caseinate (2 wt. %), KCl (0.3 wt. %), NaCl (0.1 wt. %), CaCl2 (0.2 wt. %) and NaN3 (0.01 wt. %).
After each specific time of stability for NRTOCl and NRCl emulsions, 1.5 mL of each emulsion was centrifuged (14,000 rpm) for 20 minutes at room temperature.
Since NRTOCl is a very hydrophobic compound, to evaluate its stability in oil phase, an emulsion system was used to study the stability of NRTOCl as a function of time. For this purpose, a 15% w/w solution of NRTOCl in canola oil was used for making different emulsions with Na-caseinate, Tween 80 and lecithin as the emulsifiers (2 wt. %) at room temperature.
When Na-caseinate was used as an emulsifier, the aqueous phase must be a solution of NaCl (0.1 wt. %), CaCl2 (0.2 wt. %) and KCl (0.3 wt. %) because caseinate anion with minus charge and NRTO with positive charge immediately aggregated in DI water. The total oil phase in these emulsions were 3.2 wt. %, and the concentration of NRTOCl in total volume of each emulsion (15 mL) was 4.4 mM. In the emulsions that used Na-caseinate as an emulsifier, NaN3 (0.01 wt. %) was added to prevent the growth of bacteria. When the NRTOCl emulsion was made by 2 wt. % Na-caseinate, its average size and zeta potential in this emulsion (Cas emulsion) were 1020 nm and −14.4 mV respectively.
After making NRTOCl emulsions, a NRCl in canola oil-in-water emulsion was attempted as a control experiment using 3.2% canola oil. The aqueous phase was a solution of Na-caseinate (2 wt. %), NaCl (0.1 wt. %), CaCl2 (0.2 wt. %), KCl (0.3 wt. %) and NaN3 (0.01 wt. %). The concentration of NRCl in total volume (15 mL) of this emulsion was 4.4 mM. Moreover, 15 mL of NRCl solution in DI water was prepared with 4.4 mM concentration as the other control experiment. After preparing three NRTOCl emulsions and two control experiment samples, hydrolysis stability of each sample was studied at 35° C. for 26 days (FIG. 14). The rate of degradation was measured by determination of the released nicotinamide from each sample. […]

[3] = Hydrolysis stability of NRTOCl emulsions and NRCl in water at room temperature for 42 days
Description: After each specific time of stability for NRTOCl and NRCl emulsions, 1.5 mL of each emulsion was centrifuged (14,000 rpm) for 20 minutes at room temperature. […] However, during this time of stability study, 52.0% NR was intact in water at room temperature. […] During this time, these emulsions were stable without visible phase separation. A little increase in the average size of the NRTO droplets occurred in these emulsions, so that in Cas emulsion, the average size increased from 1020 nm to 1281 nm, and in Cas-Lec emulsion, this parameter increased from 1012 nm to 1106 nm.

Structure (SMILES): CCCCCCCC/C=C\CCCCCCCC(=O)OC[C@H]1O[C@@H]([n+]2cccc(C(N)=O)c2)[C@H](OC(=O)CCCCCCC/C=C\CCCCCCCC)[C@@H]1OC(=O)CCCCCCC/C=C\CCCCCCCC.[Cl-] [NRTOCl, nicotinamide riboside trioleates chloride]
- release of NR from NRTO sample (ester hydrolysis) during stability study ([1]; DI water): not detected
- remaining amount after 28 days ([1]; DI water, 1000 ppm, 28 days): 53.3%
- times more stable than NRCl in water ([1]; 28 days): 88 times
- times more stable than NRCl in water ([1]; 28 days, listed as NRTO): more than 88 times
- times more stable than NR(Cl) in emulsion [2]: 213 times
- times more stable than NR(Cl) in emulsion ([2]; listed as NRTO): about 213 times
- remaining amount after 26 days in emulsion ([2]; canola oil-in-water emulsion, 4.4 mM): 93.7%
- released NR from NRTO (hydrolysis of ester groups) ([3]; all NRTO stability conditions): no released NR
- hydrolysis of NRTO after 42 days ([3]; canola oil-in-water emulsion (sodium caseinate), room temperature, 42 days): 5%
